Measured values as given in ChEMBL document CHEMBL5291721, “A preclinical secondary pharmacology resource illuminates target-adverse drug reaction associations of marketed drugs” (Nat Commun, 2023).

Key:
[1] = biological target: T1, Amine oxidase [flavin-containing] A (Homo sapiens, UniProt P21397); format: functional
T1 sequence (P21397 whole entry): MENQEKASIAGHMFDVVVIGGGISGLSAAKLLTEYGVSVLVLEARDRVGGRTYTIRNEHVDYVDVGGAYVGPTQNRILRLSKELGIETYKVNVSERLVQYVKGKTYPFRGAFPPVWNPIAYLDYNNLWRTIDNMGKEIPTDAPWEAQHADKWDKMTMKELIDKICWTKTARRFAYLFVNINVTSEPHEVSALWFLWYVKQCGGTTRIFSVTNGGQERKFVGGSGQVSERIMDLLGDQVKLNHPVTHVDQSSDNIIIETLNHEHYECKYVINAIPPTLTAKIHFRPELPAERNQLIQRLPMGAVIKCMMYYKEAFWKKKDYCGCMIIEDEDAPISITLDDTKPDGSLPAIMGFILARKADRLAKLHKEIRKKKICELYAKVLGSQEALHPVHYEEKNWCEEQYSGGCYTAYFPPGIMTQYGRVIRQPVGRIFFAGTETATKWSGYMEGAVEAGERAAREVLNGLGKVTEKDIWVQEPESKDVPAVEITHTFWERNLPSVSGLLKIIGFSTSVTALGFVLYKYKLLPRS

[2] = biological target: T2, Equilibrative nucleoside transporter 1 (Homo sapiens, UniProt Q99808)
T2 sequence (Q99808 whole entry): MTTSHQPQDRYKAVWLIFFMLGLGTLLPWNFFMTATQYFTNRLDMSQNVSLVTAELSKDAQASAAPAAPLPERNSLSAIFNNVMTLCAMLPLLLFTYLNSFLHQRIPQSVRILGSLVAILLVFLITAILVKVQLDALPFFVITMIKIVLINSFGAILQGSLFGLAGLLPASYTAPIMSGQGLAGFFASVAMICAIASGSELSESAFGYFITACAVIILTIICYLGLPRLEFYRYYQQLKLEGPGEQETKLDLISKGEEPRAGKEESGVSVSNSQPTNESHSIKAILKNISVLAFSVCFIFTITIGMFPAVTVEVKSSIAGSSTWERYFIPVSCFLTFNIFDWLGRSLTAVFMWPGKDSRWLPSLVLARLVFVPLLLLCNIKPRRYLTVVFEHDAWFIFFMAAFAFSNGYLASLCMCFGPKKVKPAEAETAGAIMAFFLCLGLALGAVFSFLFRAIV

[3] = biological target: Voltage-gated inwardly rectifying potassium channel KCNH2 (Homo sapiens, UniProt Q12809); format: functional; details: read-out: AC50
Voltage-gated inwardly rectifying potassium channel KCNH2, sequence (Q12809 whole entry): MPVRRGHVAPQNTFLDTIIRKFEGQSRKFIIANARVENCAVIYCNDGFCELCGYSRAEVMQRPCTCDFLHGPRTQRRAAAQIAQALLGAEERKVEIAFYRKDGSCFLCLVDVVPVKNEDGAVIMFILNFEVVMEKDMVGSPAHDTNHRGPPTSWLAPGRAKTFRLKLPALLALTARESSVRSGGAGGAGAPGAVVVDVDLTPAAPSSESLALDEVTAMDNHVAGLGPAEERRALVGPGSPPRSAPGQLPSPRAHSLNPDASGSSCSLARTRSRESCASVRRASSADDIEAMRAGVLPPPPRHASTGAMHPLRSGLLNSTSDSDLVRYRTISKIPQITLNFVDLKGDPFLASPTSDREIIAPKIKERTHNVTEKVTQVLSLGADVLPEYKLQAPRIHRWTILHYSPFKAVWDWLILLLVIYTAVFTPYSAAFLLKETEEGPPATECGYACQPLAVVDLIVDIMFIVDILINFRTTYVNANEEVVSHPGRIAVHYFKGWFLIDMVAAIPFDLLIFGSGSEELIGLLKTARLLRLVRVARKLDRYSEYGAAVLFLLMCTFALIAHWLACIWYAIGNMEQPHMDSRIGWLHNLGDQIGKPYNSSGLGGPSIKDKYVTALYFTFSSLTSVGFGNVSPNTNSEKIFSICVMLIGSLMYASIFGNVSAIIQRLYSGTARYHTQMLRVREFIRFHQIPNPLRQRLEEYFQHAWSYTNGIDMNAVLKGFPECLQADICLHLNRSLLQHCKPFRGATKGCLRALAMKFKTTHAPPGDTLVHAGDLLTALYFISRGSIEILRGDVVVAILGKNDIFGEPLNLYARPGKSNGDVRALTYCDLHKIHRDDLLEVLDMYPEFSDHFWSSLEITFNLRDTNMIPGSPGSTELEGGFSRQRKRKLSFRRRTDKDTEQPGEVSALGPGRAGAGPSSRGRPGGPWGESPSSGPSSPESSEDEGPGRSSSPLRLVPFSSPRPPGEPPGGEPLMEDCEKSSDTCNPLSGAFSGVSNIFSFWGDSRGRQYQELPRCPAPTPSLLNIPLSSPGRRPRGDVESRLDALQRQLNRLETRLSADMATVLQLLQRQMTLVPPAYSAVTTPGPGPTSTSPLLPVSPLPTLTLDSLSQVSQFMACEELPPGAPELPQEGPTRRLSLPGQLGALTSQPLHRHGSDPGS

Progesterone receptor = biological target: T3, Progesterone receptor (Homo sapiens, UniProt P06401); format: functional
T3 sequence (P06401 whole entry): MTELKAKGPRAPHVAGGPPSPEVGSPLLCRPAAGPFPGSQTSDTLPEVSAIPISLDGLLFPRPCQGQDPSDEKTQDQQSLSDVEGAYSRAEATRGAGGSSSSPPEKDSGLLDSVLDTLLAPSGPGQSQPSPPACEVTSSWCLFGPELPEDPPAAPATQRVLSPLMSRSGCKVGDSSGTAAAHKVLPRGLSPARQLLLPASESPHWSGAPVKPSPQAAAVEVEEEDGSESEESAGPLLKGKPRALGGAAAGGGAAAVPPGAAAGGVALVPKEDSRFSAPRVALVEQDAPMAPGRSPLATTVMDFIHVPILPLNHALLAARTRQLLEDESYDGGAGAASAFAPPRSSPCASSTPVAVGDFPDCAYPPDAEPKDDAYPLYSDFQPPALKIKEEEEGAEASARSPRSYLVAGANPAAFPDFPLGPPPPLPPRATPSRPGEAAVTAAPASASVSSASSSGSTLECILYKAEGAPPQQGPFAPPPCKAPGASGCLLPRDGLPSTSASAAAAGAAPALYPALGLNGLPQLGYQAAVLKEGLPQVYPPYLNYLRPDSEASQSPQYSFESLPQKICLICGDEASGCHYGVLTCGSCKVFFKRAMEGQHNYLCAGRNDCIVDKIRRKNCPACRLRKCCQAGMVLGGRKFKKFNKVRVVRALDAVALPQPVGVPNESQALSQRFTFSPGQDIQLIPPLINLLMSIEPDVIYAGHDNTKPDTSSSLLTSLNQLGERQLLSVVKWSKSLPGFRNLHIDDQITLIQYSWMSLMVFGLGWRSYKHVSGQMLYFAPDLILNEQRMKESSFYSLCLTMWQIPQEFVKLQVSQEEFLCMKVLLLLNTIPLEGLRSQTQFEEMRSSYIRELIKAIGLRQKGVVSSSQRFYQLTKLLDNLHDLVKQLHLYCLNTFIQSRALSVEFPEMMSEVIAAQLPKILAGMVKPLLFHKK

[4] = biological target: T4, Alpha-2B adrenergic receptor (Homo sapiens, UniProt P18089)
T4 sequence (P18089 whole entry): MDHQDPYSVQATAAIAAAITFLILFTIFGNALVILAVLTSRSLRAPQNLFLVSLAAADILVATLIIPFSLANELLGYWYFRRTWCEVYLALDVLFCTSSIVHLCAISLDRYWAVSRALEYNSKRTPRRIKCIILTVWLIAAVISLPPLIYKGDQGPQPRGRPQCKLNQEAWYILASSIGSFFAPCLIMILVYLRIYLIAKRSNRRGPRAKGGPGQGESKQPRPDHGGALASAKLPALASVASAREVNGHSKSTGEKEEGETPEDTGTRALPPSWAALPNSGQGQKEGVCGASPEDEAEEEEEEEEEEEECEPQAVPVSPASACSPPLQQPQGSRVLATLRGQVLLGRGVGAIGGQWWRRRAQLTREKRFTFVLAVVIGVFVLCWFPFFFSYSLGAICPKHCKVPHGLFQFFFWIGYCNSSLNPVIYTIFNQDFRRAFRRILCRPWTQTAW
Note: assay procedure not described here.

Compound	AC50 [1]	AC50 [2]	AC50 (Progesterone receptor)	AC50 [4]	AC50 [3]
CCCC[C@H](C)C[C@H](O)/C=C/[C@H]1[C@H](O)CC(=O)[C@@H]1CCCC/C=C/C(=O)O [LIMAPROST]	> 30 µM	> 30 µM	> 30 µM	> 30 µM	> 30 µM
CC(C)OC(=O)C(C(=O)OC(C)C)=C1SC=CS1 [MALOTILATE]	> 30 µM	> 30 µM	> 30 µM	> 30 µM	> 30 µM
CC(=O)Nc1c(I)c(C(=O)N[C@H]2C(O)O[C@H](CO)[C@@H](O)[C@@H]2O)c(I)c(N(C)C(C)=O)c1I (stereo not given in full) [METRIZAMIDE]	> 10 µM	> 10 µM	> 10 µM	> 10 µM	> 30 µM
CC(=O)O[C@H]1C[C@@H]2CC[C@@H]3[C@H](CC[C@@]4(C)[C@H]3C[C@H]([N+]3(C)CCCCC3)[C@@H]4OC(C)=O)[C@@]2(C)C[C@@H]1[N+]1(C)CCCCC1 [PANCURONIUM]	> 10 µM	> 10 µM	> 10 µM	> 10 µM	1.26 µM
CC1(C)C(C=C(Cl)Cl)C1C(=O)OCc1cccc(Oc2ccccc2)c1 (stereo not given) [PERMETHRIN]	> 10 µM	> 10 µM	> 30 µM	> 10 µM	> 30 µM
CC(=O)c1ccc2c(c1)N(CCCN1CCC(CCO)CC1)c1ccccc1S2 [PIPERACETAZINE]	> 30 µM	> 30 µM	> 30 µM	0.068 µM	0.5 µM
NC(=O)CCC/N=C(\c1ccc(Cl)cc1)c1cc(F)ccc1O [PROGABIDE]	> 10 µM	> 10 µM	> 10 µM	> 10 µM	> 30 µM
CCCOC(C(=O)OC1CCN(C)CC1)(c1ccccc1)c1ccccc1 [PROPIVERINE]	> 30 µM	> 30 µM	> 30 µM	> 30 µM	3.2 µM
C=CC(N)CCC(=O)O (stereo not given) [VIGABATRIN]	> 10 µM	> 30 µM	> 10 µM	> 10 µM	> 30 µM

The next lines start with results.

AC50 [1]	AC50 [2]	AC50 (Progesterone receptor)	AC50 [4]	Compound	AC50 [3]
> 30 µM	> 30 µM	> 30 µM	> 30 µM	Cc1ccc(NC(=O)C2(c3ccc4c(c3)OC(F)(F)O4)CC2)nc1-c1cccc(C(=O)O)c1 [LUMACAFTOR]	> 30 µM
> 30 µM	> 30 µM	> 30 µM	> 30 µM	CN(c1nccc(=O)[nH]1)C1CCN(c2nc3ccccc3n2Cc2ccc(F)cc2)CC1 [MIZOLASTINE]	3.34 µM
> 30 µM	> 30 µM	> 30 µM	> 30 µM	CCOC(=O)Nc1ccc2c(c1)N(C(=O)CCN1CCOCC1)c1ccccc1S2 [MORICIZINE]	19 µM
> 30 µM	> 30 µM	> 30 µM	> 30 µM	Cc1ccc(=O)n(-c2ccccc2)c1 [PIRFENIDONE]	> 30 µM
> 30 µM	> 30 µM	> 30 µM	> 30 µM	CCN(CC)CC(=O)Oc1ccc(NC(C)=O)cc1 [PROPACETAMOL]	> 30 µM
> 30 µM	> 30 µM	> 30 µM	> 30 µM	CC(NCCc1ccc(O)cc1)C(O)c1ccc(O)cc1 (stereo not given) [RITODRINE]	> 30 µM
